According to US20050282159A1, “Rpob gene of streptomyces, primer specific to streptomyces, and identification method of streptomyces having rifampin resistance or sensitivity by using the same” (priority 2001, published 2005):

Experiments:
[1] = tested on: S. anthocyanicus KCTC 9755; test: rifampin genotype by rpoB nucleotide sequence analysis; details: AAC genotype
Protocol: (§1) The primer sets of SEQ ID NOs: 1 and 2 were used to amplify rpoB genes of 60 strains, and nucleotides of the […] products were analyzed with an automatic sequencer. SRPOF1 as a forward primer and SRPOR1 as a backward primer were used.
(§2) FIG. 8 is an electropherogram obtained by amplifying 306-bp rpoB gene fragment with the SRPOF1 and SRPOR1 primer set and automatically sequencing with an SRPOF1 primer.

[2] = tested on: S. atroolvaceous KCTC 9017; test: as above
Protocol: as §1, §2

S. humidus KCCM 40647 = test: as above
Protocol: as §1, §2

[3] = tested on: S. violaceoruber KCTC 9787; details: AAC genotype
Protocol: as §1

[4] = tested on: S. xanthocidicus KCCM 40286; details: AAC genotype
Protocol: as §1

S. carpinensis KCTC 9128 = details: TCG (TCC) genotype
Protocol: as §1

S. fimbriatus KCCM 11888 = details: TCG (TCC) genotype
Protocol: as §1

[5] = tested on: S. indigoferus KCCM 40495; details: TCG (TCC) genotype
Protocol: as §1

[6] = tested on: S. griseolosporeus KCTC 9791; details: TCG (TCC) genotype
Protocol: as §1

S. fulvissimus KCTC 9773 = details: TCG (TCC) genotype
Protocol: as §1

S. erythraeus KCCM 40477 = details: TCG (TCC) genotype
Protocol: as §1

S. tendae KCCM 40105 = details: AAC genotype
Protocol: as §1

S. cremeus KCCM 40509 = details: TCG (TCC) genotype
Protocol: as §1

[7] = tested on: S. amakusaensis KCTC 9753; details: TCG (TCC) genotype
Protocol: as §1

[8] = tested on: S. disatochromogenes KCCM 40449; details: TCG (TCC) genotype
Protocol: as §1

S. anulatus KCCM 40190 = details: AAC genotype
Protocol: as §1

S. murinus KCTC 9492 = details: AAC genotype
Protocol: as §1

S. azureus KCCM 40485 = details: TCG (TCC) genotype
Protocol: as §1

[9] = tested on: S. hachijoense KCCM 32306; details: TCG (TCC) genotype
Protocol: as §1

[10] = tested on: S. citreofluorescens KCTC 9710; details: TCG (TCC) genotype
Protocol: as §1

[11] = tested on: S. californicus KCCM 40605; details: TCG (TCC) genotype
Protocol: as §1

S. fumanus KCCM 40522 = details: TCG (TCC) genotype
Protocol: as §1

[12] = tested on: S. griseostramineus KCCM 40526; details: TCG (TCC) genotype
Protocol: as §1

[13] = tested on: S. yokosukanens KCCM 40633; details: AAC genotype
Protocol: as §1

S. althioticus KCTC 9752 = details: AAC genotype
Protocol: as §1

S. albaduncus KCTC 1741 = details: AAC genotype
Protocol: as §1

S. gougeroti KCCM 40681 = details: TCG (TCC) genotype
Protocol: as §1

S. umbrinus KCCM 40316 = details: AAC genotype
Protocol: as §1

[14] = tested on: S. coeruleofuscus KCCM 40506; details: TCG (TCC) genotype
Protocol: as §1

S. humiferus KCTC 9116 = details: AAC genotype
Protocol: as §1

[15] = tested on: S. aburaviensis KCTC 9663; details: TCG (TCC) genotype
Protocol: as §1

[16] = tested on: S. albovinaceous KCCM 40177; details: TCG (TCC) genotype
Protocol: as §1

[17] = tested on: S. griseoflavus KCCM 12624; details: AAC genotype
Protocol: as §1

[18] = tested on: S. ambofaciens KCCM 40182; details: AAC genotype
Protocol: as §1

S. albospinus KCTC 9762 = details: TCG (TCC) genotype
Protocol: as §1

[19] = tested on: S. aureufaciens KCCM 40127; details: TCG (TCC) genotype
Protocol: as §1

S. coelescens KCCM 40742 = details: AAC genotype
Protocol: as §1

S. lividans KCTC 1154 = details: AAC genotype
Protocol: as §1

S. rubiginosus KCTC 9042 = details: AAC genotype
Protocol: as §1

S. kurssanovi KCCM 40527 = details: TCG (TCC) genotype
Protocol: as §1

S. piosus KCCM 40480 = details: AAC genotype
Protocol: as §1

S. baldacii KCCM 41326 = details: TCG (TCC) genotype
Protocol: as §1

[20] = tested on: S. flavotricini KCCM 40520; details: TCG (TCC) genotype
Protocol: The primer sets of SEQ ID NOs: 1 and 2 were used to amplify rpoB genes of 60 strains, and nucleotides of the 352-bp products were analyzed with an automatic sequencer. SRPOF1 as a forward primer and SRPOR1 as a backward primer were used.

CO[C@H]1/C=C/O[C@@]2(C)Oc3c(C)c(O)c4c(O)c(c(/C=N/N5CCN(C)CC5)c(O)c4c3C2=O)NC(=O)/C(C)=C\C=C\[C@H](C)[C@H](O)[C@@H](C)[C@@H](O)[C@@H](C)[C@H](OC(C)=O)[C@@H]1C [rifampin]
+: genotype (rifampin-resistant or -sensitive strain) ([1]; S. anthocyanicus KCTC 9755) | genotype (rifampin-resistant or -sensitive strain) [3] | genotype (rifampin-resistant or -sensitive strain) [4] | genotype (rifampin-resistant or -sensitive strain) (S. tendae KCCM 40105) | genotype (rifampin-resistant or -sensitive strain) (S. anulatus KCCM 40190) | genotype (rifampin-resistant or -sensitive strain) (S. murinus KCTC 9492) | genotype (rifampin-resistant or -sensitive strain) [13] | genotype (rifampin-resistant or -sensitive strain) (S. althioticus KCTC 9752) | genotype (rifampin-resistant or -sensitive strain) (S. albaduncus KCTC 1741) | genotype (rifampin-resistant or -sensitive strain) (S. umbrinus KCCM 40316) | genotype (rifampin-resistant or -sensitive strain) (S. humiferus KCTC 9116) | genotype (rifampin-resistant or -sensitive strain) [17] | genotype (rifampin-resistant or -sensitive strain) [18] | genotype (rifampin-resistant or -sensitive strain) (S. coelescens KCCM 40742) | genotype (rifampin-resistant or -sensitive strain) (S. lividans KCTC 1154) | genotype (rifampin-resistant or -sensitive strain) (S. rubiginosus KCTC 9042) | genotype (rifampin-resistant or -sensitive strain) (S. piosus KCCM 40480)
−: genotype (rifampin-resistant or -sensitive strain) ([2]; S. atroolvaceous KCTC 9017, TCG (TCC) genotype) | genotype (rifampin-resistant or -sensitive strain) (S. humidus KCCM 40647; S. humidus KCCM 40647, TCG (TCC) genotype) | genotype (rifampin-resistant or -sensitive strain) (S. carpinensis KCTC 9128) | genotype (rifampin-resistant or -sensitive strain) (S. fimbriatus KCCM 11888) | genotype (rifampin-resistant or -sensitive strain) [5] | genotype (rifampin-resistant or -sensitive strain) [6] | genotype (rifampin-resistant or -sensitive strain) (S. fulvissimus KCTC 9773) | genotype (rifampin-resistant or -sensitive strain) (S. erythraeus KCCM 40477) | genotype (rifampin-resistant or -sensitive strain) (S. cremeus KCCM 40509) | genotype (rifampin-resistant or -sensitive strain) [7] | genotype (rifampin-resistant or -sensitive strain) [8] | genotype (rifampin-resistant or -sensitive strain) (S. azureus KCCM 40485) | genotype (rifampin-resistant or -sensitive strain) [9] | genotype (rifampin-resistant or -sensitive strain) [10] | genotype (rifampin-resistant or -sensitive strain) [11] | genotype (rifampin-resistant or -sensitive strain) (S. fumanus KCCM 40522) | genotype (rifampin-resistant or -sensitive strain) [12] | genotype (rifampin-resistant or -sensitive strain) (S. gougeroti KCCM 40681) | genotype (rifampin-resistant or -sensitive strain) [14] | genotype (rifampin-resistant or -sensitive strain) [15] | genotype (rifampin-resistant or -sensitive strain) [16] | genotype (rifampin-resistant or -sensitive strain) (S. albospinus KCTC 9762) | genotype (rifampin-resistant or -sensitive strain) [19] | genotype (rifampin-resistant or -sensitive strain) (S. kurssanovi KCCM 40527) | genotype (rifampin-resistant or -sensitive strain) (S. baldacii KCCM 41326) | genotype (rifampin-resistant or -sensitive strain) [20]
rifampin-sensitive strains: rifampin resistance or sensitivity of the strain ([2]; S. atroolvaceous (KCTC9017), TCG genotype, identical to the known sensitivity results) | rifampin resistance or sensitivity of the strain (S. humidus KCCM 40647; S. humidus (KCCM 40647), TCG genotype, identical to the known sensitivity results)
rifampin-resistant strain: rifampin resistance or sensitivity of the strain ([1]; S. anthocyanicus (KCTC 9755), identical to the known sensitivity results)
